Values after ≈ are worked out from the molar mass of the structure shown.
Assays:
Plasmodium falciparum [1] = assay: Antimalarial activity after 24 hrs against chloroquine-sensitive Plasmodium falciparum D6 infected type A+ human erythrocytes by [3H]hypoxanthine uptake; type: functional; details: read-out: ED50 (the source's name)
Plasmodium falciparum [2] = assay: Antimalarial activity after 24 hrs against chloroquine-resistant Plasmodium falciparum W2 infected type A+ human erythrocytes by [3H]hypoxanthine uptake; type: functional; details: read-out: ED50 (the source's name)
[3] = Cytotoxicity against human BCA1 cells after 3 days by sulforhodamine B assay; type: cell-based; details: read-out: ED50
[4] = Cytotoxicity against human HT1080 cells after 3 days by sulforhodamine B assay; type: cell-based, HT-1080; details: read-out: ED50
[5] = Cytotoxicity against human LUC1 cells after 3 days by sulforhodamine B assay; type: cell-based; details: read-out: ED50
[6] = Cytotoxicity against human SK-MEL-2 cells after 3 days by sulforhodamine B assay; type: cell-based; details: read-out: ED50
[7] = Cytotoxicity against human Col1 cells after 3 days by sulforhodamine B assay; type: cell-based; details: read-out: ED50
[8] = Cytotoxicity against human KB cells after 3 days by sulforhodamine B assay; type: cell-based; details: read-out: ED50
[9] = Cytotoxicity against human KBV1 cells after 3 days by sulforhodamine B assay; type: cell-based, KB-V1; details: read-out: ED50
[10] = Cytotoxicity against mouse P388 cells after 2 days by sulforhodamine B assay; type: cell-based; details: read-out: ED50
[11] = Cytotoxicity against human A431 cells after 3 days by sulforhodamine B assay; type: cell-based, A-431; details: read-out: ED50
[12] = Cytotoxicity against human LNCAP cells after 3 days by sulforhodamine B assay; type: cell-based; details: read-out: ED50
[13] = Cytotoxicity against human ZR-75-1 cells after 3 days by sulforhodamine B assay; type: cell-based; details: read-out: ED50
[14] = Selectivity index, ratio of ED50 for human BCA1 cells to ED50 for chloroquine-sensitive Plasmodium falciparum D6; type: toxicity, cell-based; details: read-out: Ratio ED50
[15] = Selectivity index, ratio of ED50 for human BCA1 cells to ED50 for chloroquine-resistant Plasmodium falciparum W2; type: toxicity, cell-based; details: read-out: Ratio ED50
[16] = Selectivity index, ratio of ED50 for human HT1080 cells to ED50 for chloroquine-sensitive Plasmodium falciparum D6; type: toxicity, cell-based, HT-1080; details: read-out: Ratio ED50
[17] = Selectivity index, ratio of ED50 for human HT1080 cells to ED50 for chloroquine-resistant Plasmodium falciparum W2; type: toxicity, cell-based, HT-1080; details: read-out: Ratio ED50
[18] = Selectivity index, ratio of ED50 for human MEL2 cells to ED50 for chloroquine-sensitive Plasmodium falciparum D6; type: toxicity, cell-based; details: read-out: Ratio ED50
[19] = Selectivity index, ratio of ED50 for human MEL2 cells to ED50 for chloroquine-resistant Plasmodium falciparum W2; type: toxicity, cell-based; details: read-out: Ratio ED50
[20] = Selectivity index, ratio of ED50 for human COL1 cells to ED50 for chloroquine-sensitive Plasmodium falciparum D6; type: toxicity, cell-based; details: read-out: Ratio ED50
[21] = Selectivity index, ratio of ED50 for human COL1 cells to ED50 for chloroquine-resistant Plasmodium falciparum W2; type: toxicity, cell-based; details: read-out: Ratio ED50
[22] = Selectivity index, ratio of ED50 for human KB cells to ED50 for chloroquine-sensitive Plasmodium falciparum D6; type: toxicity, cell-based; details: read-out: Ratio ED50
[23] = Selectivity index, ratio of ED50 for human KB-V1 cells to ED50 for chloroquine-sensitive Plasmodium falciparum D6; type: toxicity, cell-based; details: read-out: Ratio ED50
[24] = Selectivity index, ratio of ED50 for human KB-V1 cells to ED50 for chloroquine-resistant Plasmodium falciparum W2; type: toxicity, cell-based; details: read-out: Ratio ED50
[25] = Selectivity index, ratio of ED50 for human LNCaP cells to ED50 for chloroquine-sensitive Plasmodium falciparum D6; type: toxicity, cell-based; details: read-out: Ratio ED50
[26] = Selectivity index, ratio of ED50 for human LNCaP cells to ED50 for chloroquine-resistant Plasmodium falciparum W2; type: toxicity, cell-based; details: read-out: Ratio ED50
[27] = Selectivity index, ratio of ED50 for human ZR-75-1 cells to ED50 for chloroquine-sensitive Plasmodium falciparum D6; type: toxicity, cell-based; details: read-out: Ratio ED50
[28] = Selectivity index, ratio of ED50 for human ZR-75-1 cells to ED50 for chloroquine-resistant Plasmodium falciparum W2; type: toxicity, cell-based; details: read-out: Ratio ED50
in vitro [29] = details: mouse, P388 cells
Description: Selectivity index, ratio of ED50 for mice (Mus musculus) P388 cells to ED50 for chloroquine-sensitive Plasmodium falciparum D6

in vitro [30] = details: mouse, P388 cells; remark: listed apart in the source
Description: Selectivity index, ratio of ED50 for mice (Mus musculus) P388 cells to ED50 for chloroquine-resistant Plasmodium falciparum W2

in vitro [31] = details: human, A431 cells
Description: Selectivity index, ratio of ED50 for human A431 cells to ED50 for chloroquine-sensitive Plasmodium falciparum D6

in vitro [32] = details: human, A431 cells; remark: listed apart in the source
Description: Selectivity index, ratio of ED50 for human A431 cells to ED50 for chloroquine-resistant Plasmodium falciparum W2

[33] = Selectivity index, ratio of ED50 for human LUC1 cells to ED50 for chloroquine-sensitive Plasmodium falciparum D6; type: toxicity, cell-based; details: read-out: Ratio ED50
[34] = Selectivity index, ratio of ED50 for human LUC1 cells to ED50 for chloroquine-resistant Plasmodium falciparum W2; type: toxicity, cell-based; details: read-out: Ratio ED50
[35] = Selectivity index, ratio of ED50 for human KB cells to ED50 for chloroquine-resistant Plasmodium falciparum W2; type: toxicity, cell-based; details: read-out: Ratio ED50

Compound	EC50 (Plasmodium falciparum [1]) [µg/mL]	EC50 (Plasmodium falciparum [2]) [µg/mL]	CC50 at 72 h [3] [µg/mL]	CC50 at 72 h [4] [µg/mL]	CC50 at 72 h [5] [µg/mL]	CC50 at 72 h [6] [µg/mL]	CC50 at 72 h [7] [µg/mL]	CC50 at 72 h [8] [µg/mL]	CC50 at 72 h [9] [µg/mL]	CC50 at 48 h [10] [µg/mL]	CC50 at 72 h [11] [µg/mL]	CC50 at 72 h [12] [µg/mL]	CC50 at 72 h [13] [µg/mL]	selectivity ratio [14]	selectivity ratio [15]	selectivity ratio [16]	selectivity ratio [17]	selectivity ratio [27]	selectivity ratio [28]	selectivity ratio (in vitro [30])	also measured
CCN(CC)CCCC(C)Nc1ccnc2cc(Cl)ccc12 (stereo not given) [CHLOROQUINE]	0.0025 (≈ 0.00782 µM)	0.0317 (≈ 0.0991 µM)	> 20	6.5 (≈ 20.3 µM)	> 20	> 20	10.1 (≈ 31.6 µM)	17.4 (≈ 54.4 µM)	7.8 (≈ 24.4 µM)	> 5	> 20	14.3 (≈ 44.7 µM)	15.8 (≈ 49.4 µM)	–	–	–	–	–	–	–	–
OC(c1cc(C(F)(F)F)nc2c(C(F)(F)F)cccc12)C1CCCCN1 (stereo not given) [MEFLOQUINE]	0.009 (≈ 0.0238 µM)	0.0012 (≈ 0.00317 µM)	5.3 (≈ 14 µM)	2.3 (≈ 6.08 µM)	7.7 (≈ 20.4 µM)	8.9 (≈ 23.5 µM)	1 (≈ 2.64 µM)	3.5 (≈ 9.25 µM)	1.1 (≈ 2.91 µM)	0.2 (≈ 0.529 µM)	3 (≈ 7.93 µM)	2.3 (≈ 6.08 µM)	1.2 (≈ 3.17 µM)	588	4420	256	1920	300	2250	166	selectivity ratio [18]: 989; selectivity ratio [19]: 7420; selectivity ratio [20]: 111; selectivity ratio [21]: 833; selectivity ratio [22]: 389; selectivity ratio [23]: 122; selectivity ratio [24]: 917; selectivity ratio [25]: 256; selectivity ratio [26]: 1920; selectivity ratio (in vitro [29]): 22; selectivity ratio (in vitro [31]): 333; selectivity ratio (in vitro [32]): 2500
COc1ccc2cc1Oc1ccc(cc1)C[C@H]1c3c(cc(O)c(OC)c3Oc3cc4c(cc3OC)CCN(C)[C@@H]4C2)CCN1C	0.13 (≈ 0.214 µM)	0.31 (≈ 0.509 µM)	4.7 (≈ 7.72 µM)	7.2 (≈ 11.8 µM)	8.6 (≈ 14.1 µM)	12.8 (≈ 21 µM)	7.5 (≈ 12.3 µM)	6.4 (≈ 10.5 µM)	7.4 (≈ 12.2 µM)	3.7 (≈ 6.08 µM)	8.9 (≈ 14.6 µM)	8.3 (≈ 13.6 µM)	2.1 (≈ 3.45 µM)	–	–	–	–	4	43	76	–
COc1ccc2cc1Oc1ccc(cc1)C[C@H]1c3cc(c(OC)cc3CCN1C)Oc1c(O)c(OC)cc3c1[C@@H](C2)NCC3	0.0686 (≈ 0.115 µM)	0.125 (≈ 0.21 µM)	4.1 (≈ 6.89 µM)	2.2 (≈ 3.7 µM)	8.4 (≈ 14.1 µM)	15.4 (≈ 25.9 µM)	4.7 (≈ 7.9 µM)	6.3 (≈ 10.6 µM)	8.1 (≈ 13.6 µM)	0.1 (≈ 0.168 µM)	4.2 (≈ 7.06 µM)	6.6 (≈ 11.1 µM)	1.2 (≈ 2.02 µM)	60	33	32	18	23	13	1	selectivity ratio [33]: 123; selectivity ratio [34]: 67; selectivity ratio [18]: 225; selectivity ratio [20]: 69; selectivity ratio [21]: 38; selectivity ratio [22]: 92; selectivity ratio [35]: 50; selectivity ratio [23]: 118; selectivity ratio [24]: 65; selectivity ratio [25]: 97; selectivity ratio [26]: 53; selectivity ratio (in vitro [29]): 2; selectivity ratio (in vitro [31]): 61; selectivity ratio (in vitro [32]): 34

From ChEMBL document CHEMBL1147331, “Cytotoxic and antimalarial bisbenzylisoquinoline alkaloids from Stephania erecta” (J Nat Prod, 1993)
